Patent US11779572B1, “Methods of treating gastrointestinal stromal tumors” (Deciphera Pharmaceuticals, LLC, priority 2022, dated 2023)

What was measured:
[1] = tested on: patients with advanced GIST; experiment: Example 1 study: treatment-emergent adverse events, safety; assay type: in vivo, human
Protocol: Patients were randomized 2:1 to either 150 mg of ripretinib or placebo once daily. The primary efficacy endpoint is progression-free survival (PFS) as determined by independent radiologic review using modified Response Evaluation Criteria in Solid Tumors (RECIST). Secondary endpoints as determined by independent radiologic review using modified RECIST include Objective Response Rate (ORR), Time to Tumor Progression (TTP) and Overall Survival (OS).
The safety of ripretinib and the impact of alopecia and palmar-plantar erythrodysesthesia (PPES) on patient-reported outcomes (PROs) of patients treated in the study described in Example 1 herein are described. […] When stratified by alopecia and PPES, patient reported assessments of function, overall health, and overall quality of life were maintained over time.

CYP2D6 = CYP2D6 (Homo sapiens, UniProt P10635); experiment: Contribution of CYP enzymes to metabolism, in vitro data; assay type: in vitro ADME; settings: base model, based on in vitro data
Chain of CYP2D6 (P10635 whole entry): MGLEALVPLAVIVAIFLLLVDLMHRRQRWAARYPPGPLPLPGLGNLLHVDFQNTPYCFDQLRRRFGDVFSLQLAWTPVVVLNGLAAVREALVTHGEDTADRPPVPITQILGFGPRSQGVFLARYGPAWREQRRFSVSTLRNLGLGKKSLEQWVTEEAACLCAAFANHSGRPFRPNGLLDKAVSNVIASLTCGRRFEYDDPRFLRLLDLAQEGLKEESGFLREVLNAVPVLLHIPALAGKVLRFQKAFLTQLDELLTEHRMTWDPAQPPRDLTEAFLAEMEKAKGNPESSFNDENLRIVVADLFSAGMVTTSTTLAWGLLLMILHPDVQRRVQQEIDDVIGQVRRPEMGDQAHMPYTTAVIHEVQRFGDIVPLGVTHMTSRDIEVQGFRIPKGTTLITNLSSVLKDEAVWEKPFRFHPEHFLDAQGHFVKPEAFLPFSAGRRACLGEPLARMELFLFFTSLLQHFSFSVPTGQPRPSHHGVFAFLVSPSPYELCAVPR
Source text: (§1) A PBPK model that included a mechanistic absorption model was developed.

GIST = experiment: Phase 1 study, ripretinib 150 mg QD, second-line through fourth-line plus GIST (Example 3): efficacy; assay type: in vivo, human; settings: for Best response (confirmed only): CR / Best response (confirmed only): PR / Best response (confirmed only): Progressive disease / Best response (confirmed only): Stable disease / ORR, n (95% CI) / PFS, Median: 150 mg QD; for ORR, n (95% CI): CR+PR; for PFS, Median: investigator assessment
Protocol: Efficacy and safety results from the escalation and expansion phases of a phase 1 study for patients with GIST treated at ripretinib 150 mg QD as the starting dose in 28-day cycles are presented. Local, investigator-assessed Response Evaluation Criteria in Solid Tumors (RECIST 1.1) response assessments were performed every 2 cycles, and patients in the expansion cohorts who progressed per RECIST 1.1 were allowed to dose escalate to 150 mg BID.
142 patients with GIST in the escalation and expansion phases were treated at 150 mg QD dose. Number of patients by line of therapy were as follows: 31 2nd line, 28 3rd line, and 83≥4th line patients. 135 patients (95.1%) had KIT-mutant GIST, and 7 patients (4.9%) had PDGFRA-mutant GIST.
For example, the confirmed-only complete response (CR), partial response (PR), stable disease, and progressive disease are presented in Table 4. The objective response rate data in Table 4 relates to the proportion of patients with CR+PR. The median PFS data in Table 4 refers to progression-free survival per investigator assessment, by line of therapy.
In Table 4: ^a64 subjects escalated to 150 mg BID among patients with GIST in the 150 mg QD dose group. CI, confidence interval; CR, complete response; NE, not estimable; ORR, objective response rate; PFS, progression-free survival; PR, partial response; SD, […]. Local (investigator) response assessment.

CYP3A4 = CYP3A4 (Homo sapiens, UniProt P08684); experiment: Contribution of CYP enzymes to metabolism, in vitro data; assay type: in vitro ADME; settings: base model, based on in vitro data
Chain of CYP3A4 (P08684 whole entry): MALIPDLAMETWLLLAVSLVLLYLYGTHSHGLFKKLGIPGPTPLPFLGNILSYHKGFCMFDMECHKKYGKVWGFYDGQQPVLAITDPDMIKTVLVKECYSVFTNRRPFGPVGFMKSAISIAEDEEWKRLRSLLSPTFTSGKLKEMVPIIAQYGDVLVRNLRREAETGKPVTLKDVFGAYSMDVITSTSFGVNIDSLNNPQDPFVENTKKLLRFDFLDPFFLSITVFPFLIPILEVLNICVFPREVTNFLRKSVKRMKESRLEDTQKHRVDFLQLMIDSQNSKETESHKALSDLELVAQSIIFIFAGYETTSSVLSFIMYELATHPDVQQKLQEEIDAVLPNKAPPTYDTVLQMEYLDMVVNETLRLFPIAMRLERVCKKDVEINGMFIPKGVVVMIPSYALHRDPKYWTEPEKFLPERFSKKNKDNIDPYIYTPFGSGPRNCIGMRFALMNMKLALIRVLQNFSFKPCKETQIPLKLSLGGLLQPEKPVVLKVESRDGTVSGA
Source text: as §1

CYP2C8 = target: T1, CYP2C8 (Homo sapiens, UniProt P10632); experiment: as above; assay type: in vitro ADME; settings: base model, based on in vitro data
T1 sequence (P10632 1-490): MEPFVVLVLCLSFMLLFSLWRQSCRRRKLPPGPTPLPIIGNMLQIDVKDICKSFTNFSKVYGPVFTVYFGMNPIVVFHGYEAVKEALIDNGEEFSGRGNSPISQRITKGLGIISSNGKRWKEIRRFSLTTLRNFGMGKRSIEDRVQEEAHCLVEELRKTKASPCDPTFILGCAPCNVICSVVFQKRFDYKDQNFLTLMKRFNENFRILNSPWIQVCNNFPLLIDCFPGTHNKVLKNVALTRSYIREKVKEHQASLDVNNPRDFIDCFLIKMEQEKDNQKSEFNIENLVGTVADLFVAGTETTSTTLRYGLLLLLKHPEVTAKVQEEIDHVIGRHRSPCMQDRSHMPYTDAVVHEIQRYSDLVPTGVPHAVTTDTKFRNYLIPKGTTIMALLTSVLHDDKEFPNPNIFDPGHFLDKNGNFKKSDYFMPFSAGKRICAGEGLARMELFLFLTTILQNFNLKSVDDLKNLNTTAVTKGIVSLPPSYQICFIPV
Source text: as §1

[2] = Coadministration with pantoprazole (proton-pump inhibitor); assay type: in vivo, human; settings: 40 mg QD pantoprazole with 150 mg QD ripretinib
Protocol: The effect of a proton-pump inhibitor on the exposure of ripretinib was evaluated.

[3] = tested on: patients with advanced GIST; experiment: Example 1 study: patient reported outcomes (EQ-5D-5L VAS, EORTC QLQ-C30); assay type: in vivo, human; settings: 150 mg QD
Protocol: Patient reported outcomes were assessed by EQ-5D-5L, which provides a visual analogue scale (VAS), and EORTC QLQ-C30, which provides physical function and role function scales. The EQ-5D-5L VAS (or EQ-VAS) records the respondent's overall current health on a vertical visual analogue scale and provides a quantitative measure of the patient's perception of overall health. These patient outcomes were reported across 28-day cycles of receiving 150 mg QD ripretinib or placebo.
The EORTC QLQ-C30 is an assessment of function and symptoms of therapy by cancer patient, and is not specific to any cancer. The EORTC QLQ-C30 is a 30-question plus one global health status, including 5 functional scales, 3 symptom scales and a global health status.

With `CCn1c(=O)c(-c2cc(NC(=O)Nc3ccccc3)c(F)cc2Br)cc2cnc(NC)cc21` [ripretinib] the alopecia in females ([1]; female, human, in vivo) was 56.8%, the “Grade 3 or 4 TEAE abdominal pain” value ([1]; human, in vivo) was 7% and the “Grade 3 or 4 TEAE hypertension” value ([1]; human, in vivo) was 7%. For the same compound, the “TEAE alopecia (most common TEAE)” value ([1]; human, in vivo) was 51.8%, the “patients reporting PPES” value ([1]; human, in vivo) was 21.2% and the “patients with Grade 3 or 4 TEAEs” value ([1]; human, in vivo) was 42 (49%). The “patients with a TEAE leading to dose interruption” value ([1]; human, in vivo) was 23.5%, the “patients with a TEAE leading to dose reduction” value ([1]; human, in vivo) was 7.1% and the “TEAEs during the crossover period” value ([1]; in vivo) was “no safety concerns”. The “patients with grade 3 PPES” value ([1]; in vivo) was “no patients”, the “serious adverse events of alopecia or PPES” value ([1]; in vivo) was “no serious adverse events” and the alopecia in males ([1]; male, human, in vivo) was 43.2%. For the same compound, the “patients with a TEAE leading to death” value ([1]; ripretinib arm) was 5.9%, the “share of metabolism assigned to CYP2D6” value (CYP2D6) was 18% and the “Best response (confirmed only): CR” value (GIST; 2nd Line (n = 31)) was 0 n (%). The “Best response (confirmed only): PR” value (GIST; 2nd Line (n = 31)) was 6 (19.4) n (%), the “Best response (confirmed only): Progressive disease” value (“Best response … Progressive disease” below) (GIST; 2nd Line (n = 31)) was 4 (12.9) n (%) and the “Best response (confirmed only): Stable disease” value (shortened to “Best response … Stable disease”) (GIST; 2nd Line (n = 31)) was 21 (67.7) n (%). For the same compound, the “ORR, n (95% CI)” value (GIST; 2nd Line (n = 31)) was 19.4 (7.5, 37.5), the “PFS, Median” value (GIST; 2nd Line (n = 31)) was 46.4 weeks and the “Best response (confirmed only): CR” value (GIST; 3rd Line (n = 28)) was 0 n (%). For the same compound, the “Best response (confirmed only): PR” value (GIST; 3rd Line (n = 28)) was 4 (14.3) n (%), the “Best response … Progressive disease” value (GIST; 3rd Line (n = 28)) was 6 (21.4) n (%) and the “Best response … Stable disease” value (GIST; 3rd Line (n = 28)) was 18 (64.3) n (%). For the same compound, the “ORR, n (95% CI)” value (GIST; 3rd Line (n = 28)) was 14.3, the “PFS, Median” value (GIST; 3rd Line (n = 28)) was 36.3 weeks and the “Best response (confirmed only): CR” value (GIST; ≥4th Line (n = 83)) was 0 n (%). The “Best response (confirmed only): PR” value (GIST; ≥4th Line (n = 83)) was 6 (7.2) n (%), the “Best response … Progressive disease” value (GIST; ≥4th Line (n = 83)) was 22 (26.5) n (%) and the “Best response … Stable disease” value (GIST; ≥4th Line (n = 83)) was 49 (59.0) n (%). The “ORR, n (95% CI)” value (GIST; ≥4th Line (n = 83)) was 7.2 (2.7, 15.1), the “PFS, Median” value (GIST; ≥4th Line (n = 83)) was 23.9 weeks and the “PFS of second and third-line patients with Exons 9, 11, 13 or 17 KIT mutations” value (GIST; FIG. 27) was “comparable PFS”. The “clinical benefit after dose escalation to 150 mg BID (PFS1 vs PFS2)” value (GIST; regardless of line of therapy, FIG. 25) was “additional clinical benefit”, the “share of metabolism assigned to CYP3A4” value (CYP3A4) was 59% and the “share of metabolism assigned to CYP2C8” value (CYP2C8) was 23%. For the same compound, the “plasma exposure when ripretinib is coadministered with pantoprazole” value [2] was “No clinically significant differences”, the “EORTC QLQ-C30 physical function score, average improvement from baseline” value ([3]; baseline to C2D1) was 1.6 and the “EORTC QLQ-C30 role function score, average improvement from baseline” value ([3]; baseline to C2D1) was 3.5. For the same compound, the “EQ-VAS score, average improvement from baseline” value ([3]; baseline to Cycle 2, Day 1) was 3.7, the “EORTC QLQ-C30 Question C29 (overall health) score improvement” value ([3]; scale 1 to 7) was 0.20 and the “EORTC QLQ-C30 Question C30 (overall quality of life) score improvement” value ([3]; scale 1 to 7) was 0.28.
